Experimental data published in ChEMBL document CHEMBL1146197, “Evolution of TEM-type enzymes: biochemical and genetic characterization of two new complex mutant TEM enzymes, TEM-151 and TEM-152, from a single patient” (Antimicrob Agents Chemother, 2007).
Converted amounts (≈) assume the structure as drawn.

How the values were obtained:
[1] = test system: Escherichia coli; experiment: Antimicrobial activity against recombinant Escherichia coli DH5-alpha isolate expressing pBK-TEM-1 and TEM1 by disk diffusion assay; type: functional; conditions: DH5alpha
[2] = test system: Escherichia coli; experiment: Activity of Escherichia coli BL21(DE3) beta-lactamase TEM1
[3] = test system: Escherichia coli; experiment: Activity of Escherichia coli BL21(DE3) beta-lactamase TEM29
[4] = test system: Escherichia coli; experiment: Activity of Escherichia coli BL21(DE3) beta-lactamase TEM36
[5] = test system: Escherichia coli; experiment: Antimicrobial activity against recombinant Escherichia coli DH5-alpha isolate expressing pBK-TEM-28 and ESBL by disk diffusion assay; type: functional; conditions: DH5alpha
[6] = test system: Escherichia coli; experiment: Activity of Escherichia coli BL21(DE3) beta-lactamase TEM152
[7] = test system: Escherichia coli; experiment: Antimicrobial activity against Escherichia coli DH5-alpha TC1179 isolate expressing TEM-1 by […]; type: functional; conditions: DH5alpha
[8] = test system: Escherichia coli; experiment: Antimicrobial activity against Escherichia coli DH5-alpha TC1295 isolate expressing TEM-1 by […]; type: functional; conditions: DH5alpha
[9] = test system: Escherichia coli; experiment: Antimicrobial activity against Escherichia coli DH5-alpha CF1179 isolate expressing CMT and TEM1 by […]; type: functional; conditions: DH5alpha
[10] = test system: Escherichia coli; experiment: Activity of Escherichia coli BL21(DE3) beta-lactamase TEM28
[11] = test system: Escherichia coli; experiment: Antimicrobial activity against Escherichia coli DH5-alpha isolate expressing pBK-CMV by […]; type: functional; conditions: DH5alpha
[12] = test system: Escherichia coli; experiment: Antimicrobial activity against recombinant Escherichia coli DH5-alpha isolate expressing pBK-TEM-36 and IRT by disk diffusion assay; type: functional; conditions: DH5alpha
[13] = test system: Escherichia coli; experiment: Antimicrobial activity against recombinant Escherichia coli DH5-alpha isolate expressing pBK-TEM-29 and ESBL by disk diffusion assay; type: functional; conditions: DH5alpha
[14] = test system: Escherichia coli; experiment: microbe, parasite or virus in culture; type: functional; conditions: DH5alpha
[15] = test system: Escherichia coli; experiment: Activity of Escherichia coli BL21(DE3) beta-lactamase TEM151
[16] = test system: Escherichia coli; experiment: microbe, parasite or virus in culture; type: functional; conditions: DH5alpha; remark: listed apart in the source
[17] = test system: Escherichia coli; experiment: Antimicrobial activity against Escherichia coli DH5-alpha CF1295 isolate expressing CMT and TEM1 by […]; type: functional; conditions: DH5alpha

| SMILES | MIC [1] | kcat [2] | Km [3] | kcat [3] | kcat/Km [3] | kcat [4] | MIC [5] | Km [6] | kcat [6] | kcat/Km [6] | MIC [7] | MIC [8] | MIC [9] | Km [10] | MIC [11] | MIC [12] | MIC [13] | MIC [14] | MIC [16] | MIC [17] | also measured |
| --- | --- | --- | --- | --- | --- | --- | --- | --- | --- | --- | --- | --- | --- | --- | --- | --- | --- | --- | --- | --- | --- |
| CO/N=C(\C(=O)N[C@@H]1C(=O)N2C(C(=O)[O-])=C(C[N+]3(C)CCCC3)CS[C@H]12)c1csc(N)n1 | < 0.06 µg/mL | < 0.1 s⁻¹ | 145 µM | 17 s⁻¹ | 110000 M⁻¹ s⁻¹ | < 0.1 s⁻¹ | 16 µg/mL | 45 µM | 2.8 s⁻¹ | 60000 M⁻¹ s⁻¹ | < 0.06 µg/mL | < 0.06 µg/mL | 2 µg/mL (≈ 4.16 µM) | 72 µM | < 0.06 µg/mL | 0.12 µg/mL | 4 µg/mL | 16 µg/mL (≈ 33.3 µM) | – | – | kcat [10]: 8 s⁻¹; kcat/Km [10]: 110000 M⁻¹ s⁻¹; Km [15]: 126 µM; kcat [15]: 2.5 s⁻¹; kcat/Km [15]: 20000 M⁻¹ s⁻¹ |
| C[C@H]1[C@H](NC(=O)/C(=N\OC(C)(C)C(=O)O)c2csc(N)n2)C(=O)N1S(=O)(=O)O (stereo in doubt) [AZTREONAM] | – | < 0.1 s⁻¹ | 34 µM | 2.1 s⁻¹ | 60000 M⁻¹ s⁻¹ | < 0.1 s⁻¹ | – | 22 µM | 3.5 s⁻¹ | 160000 M⁻¹ s⁻¹ | – | – | > 2050 µg/mL | 75 µM | – | – | 4 µg/mL | 64 µg/mL (≈ 147 µM) | 2 µg/mL (≈ 4.59 µM) | 8 µg/mL (≈ 18.4 µM) | kcat [10]: 43 s⁻¹; kcat/Km [10]: 570000 M⁻¹ s⁻¹; Km [15]: 83 µM; kcat [15]: 8.3 s⁻¹; kcat/Km [15]: 100000 M⁻¹ s⁻¹ |
| CC1(C)S[C@@H]2[C@H](NC(=O)[C@H](N)c3ccc(O)cc3)C(=O)N2[C@H]1C(=O)O [AMOXICILLIN] | > 2050 µg/mL | 1120 s⁻¹ | 26 µM | 91 s⁻¹ | 3.5e+06 M⁻¹ s⁻¹ | 624 s⁻¹ | > 2050 µg/mL | 48 µM | 258 s⁻¹ | 5.4e+06 M⁻¹ s⁻¹ | > 2050 µg/mL | > 2050 µg/mL | > 2050 µg/mL | 12 µM | 4 µg/mL (≈ 10.9 µM) | > 2050 µg/mL | > 2050 µg/mL | > 2050 µg/mL | > 2050 µg/mL | > 2050 µg/mL | Km [2]: 15 µM; kcat/Km [2]: 7.5e+07 M⁻¹ s⁻¹; Km [4]: 114 µM; kcat/Km [4]: 5.5e+06 M⁻¹ s⁻¹; kcat [10]: 88 s⁻¹; kcat/Km [10]: 7.3e+06 M⁻¹ s⁻¹; Km [15]: 40 µM; kcat [15]: 149 s⁻¹; kcat/Km [15]: 3.7e+06 M⁻¹ s⁻¹ |
| CO/N=C(\C(=O)N[C@@H]1C(=O)N2C(C(=O)O)=C(COC(C)=O)CS[C@H]12)c1csc(N)n1 [CEFOTAXIME] | 0.06 µg/mL | < 0.1 s⁻¹ | 345 µM | 14 s⁻¹ | 40000 M⁻¹ s⁻¹ | < 0.1 s⁻¹ | 4 µg/mL | 34 µM | 1 s⁻¹ | 30000 M⁻¹ s⁻¹ | 0.02 µg/mL (≈ 0.0439 µM) | 0.02 µg/mL (≈ 0.0439 µM) | 0.12 µg/mL (≈ 0.263 µM) | 50 µM | 0.02 µg/mL (≈ 0.0439 µM) | 0.06 µg/mL | 0.5 µg/mL | 0.25 µg/mL (≈ 0.549 µM) | 0.06 µg/mL (≈ 0.132 µM) | 0.12 µg/mL (≈ 0.263 µM) | kcat [10]: 9 s⁻¹; kcat/Km [10]: 180000 M⁻¹ s⁻¹; Km [15]: 304 µM; kcat [15]: 5 s⁻¹; kcat/Km [15]: 20000 M⁻¹ s⁻¹ |
| CO[C@@]1(NC(=O)Cc2cccs2)C(=O)N2C(C(=O)O)=C(COC(N)=O)CS[C@@H]21 [CEFOXITIN] | 4 µg/mL | – | – | – | – | – | 8 µg/mL | – | – | – | 4 µg/mL (≈ 9.36 µM) | 4 µg/mL (≈ 9.36 µM) | 8 µg/mL (≈ 18.7 µM) | – | 4 µg/mL (≈ 9.36 µM) | 8 µg/mL | 16 µg/mL | 8 µg/mL (≈ 18.7 µM) | 8 µg/mL (≈ 18.7 µM) | 8 µg/mL (≈ 18.7 µM) | – |
| CC(C)(O/N=C(\C(=O)N[C@@H]1C(=O)N2C(C(=O)[O-])=C(C[n+]3ccccc3)CS[C@H]12)c1csc(N)n1)C(=O)O [CEFTAZIDIME] | 0.12 µg/mL | < 0.1 s⁻¹ | 215 µM | 10 s⁻¹ | 50000 M⁻¹ s⁻¹ | < 0.1 s⁻¹ | 512 µg/mL | 230 µM | 16 s⁻¹ | 70000 M⁻¹ s⁻¹ | 0.12 µg/mL (≈ 0.22 µM) | 0.12 µg/mL (≈ 0.22 µM) | 64 µg/mL (≈ 117 µM) | 240 µM | 0.12 µg/mL (≈ 0.22 µM) | 0.25 µg/mL | 32 µg/mL | 512 µg/mL (≈ 937 µM) | 8 µg/mL (≈ 14.6 µM) | 4 µg/mL (≈ 7.32 µM) | kcat [10]: 64 s⁻¹; kcat/Km [10]: 270000 M⁻¹ s⁻¹; Km [15]: 250 µM; kcat [15]: 5 s⁻¹; kcat/Km [15]: 20000 M⁻¹ s⁻¹ |
| CO/N=C(\C(=O)N[C@@H]1C(=O)N2C(C(=O)O)=C(COC(N)=O)CS[C@H]12)c1ccco1 [CEFUROXIME] | 4 µg/mL | – | – | – | – | – | 16 µg/mL | – | – | – | 4 µg/mL (≈ 9.43 µM) | 4 µg/mL (≈ 9.43 µM) | 8 µg/mL (≈ 18.9 µM) | – | 4 µg/mL (≈ 9.43 µM) | 8 µg/mL | 1020 µg/mL | 8 µg/mL (≈ 18.9 µM) | 8 µg/mL (≈ 18.9 µM) | 8 µg/mL (≈ 18.9 µM) | – |
| CC(=O)OCC1=C(C(=O)O)N2C(=O)[C@@H](NC(=O)Cc3cccs3)[C@H]2SC1 [CEPHALOTHIN] | 4 µg/mL | 165 s⁻¹ | 205 µM | 126 s⁻¹ | 610000 M⁻¹ s⁻¹ | 18.4 s⁻¹ | 128 µg/mL | 260 µM | 4 s⁻¹ | 20000 M⁻¹ s⁻¹ | 4 µg/mL (≈ 10.1 µM) | 4 µg/mL (≈ 10.1 µM) | 32 µg/mL (≈ 80.7 µM) | 288 µM | 4 µg/mL (≈ 10.1 µM) | 16 µg/mL | 64 µg/mL | 16 µg/mL (≈ 40.4 µM) | 8 µg/mL (≈ 20.2 µM) | 32 µg/mL (≈ 80.7 µM) | Km [2]: 242 µM; kcat/Km [2]: 700000 M⁻¹ s⁻¹; Km [4]: 335 µM; kcat/Km [4]: 50000 M⁻¹ s⁻¹; kcat [10]: 194 s⁻¹; kcat/Km [10]: 670000 M⁻¹ s⁻¹; Km [15]: 330 µM; kcat [15]: 15 s⁻¹; kcat/Km [15]: 40000 M⁻¹ s⁻¹ |
| CCN1CCN(C(=O)N[C@@H](C(=O)N[C@@H]2C(=O)N3[C@@H]2SC(C)(C)[C@@H]3C(=O)O)c2ccccc2)C(=O)C1=O [PIPERACILLIN] | 512 µg/mL | 1250 s⁻¹ | 39 µM | 336 s⁻¹ | 8.6e+06 M⁻¹ s⁻¹ | 1220 s⁻¹ | > 2050 µg/mL | 50 µM | 306 s⁻¹ | 6.12e+06 M⁻¹ s⁻¹ | 512 µg/mL (≈ 989 µM) | 512 µg/mL (≈ 989 µM) | > 2050 µg/mL | 27 µM | 2 µg/mL (≈ 3.86 µM) | > 2050 µg/mL | 1020 µg/mL | > 2050 µg/mL | 256 µg/mL (≈ 495 µM) | 512 µg/mL (≈ 989 µM) | Km [2]: 55 µM; kcat/Km [2]: 2.3e+06 M⁻¹ s⁻¹; Km [4]: 170 µM; kcat/Km [4]: 7.1e+06 M⁻¹ s⁻¹; kcat [10]: 213 s⁻¹; kcat/Km [10]: 7.9e+06 M⁻¹ s⁻¹; Km [15]: 44 µM; kcat [15]: 172 s⁻¹; kcat/Km [15]: 3.9e+06 M⁻¹ s⁻¹ |
